Literature values in PMC4365270 (Cancer Chemotherapy and Pharmacology, 2015).

Parameters: method as in earlier work
Details: higher doses; cited from earlier work

In the case of CC[C@H](NC(=O)[C@H](C)NC)C(=O)N1C[C@@H](O)C[C@H]1Cc1c(-c2[nH]c3cc(F)ccc3c2C[C@@H]2C[C@H](O)CN2C(=O)[C@H](CC)NC(=O)[C@H](C)NC)[nH]c2cc(F)ccc12 [birinapant], the “Bell’s Palsy syndrome” value is listed as “increased incidence”.
